According to patent publication US11021457B2, “Class of isoindolone-imide ring-1,3-dione-2-ene compounds, composition and use thereof” (WIGEN BIOMEDICINE TECHNOLOGY (SHANGHAI) CO., LTD., priority 2017, dated 2021):

How the values were obtained:
Assay type in all cases: cell-based
Details in all cases: compound concentration 50 μM, 72 hours
BxPC-3 = assay: Inhibition of tumor cell proliferation, CellTiter-Glo, BxPC-3
Description: (§1) For various cell lines, the corresponding complete medium was used, and culture was carried out in an incubator at 37° C. with 5% CO2. The cells were counted, and inoculated into a 96-well plate at 2000-10000 cells/100 μl per well according to the cell volume and growth rate. The suspended cells were treated immediately, and the adherent cells were treated after adherence. The CellTiter-Glo method was used to detect the changes in cell viability 72 hours after the administration, and the cell survival rate at different concentrations was calculated by a formula: Survival rate (%)=(RLU of treatment well−RLU of blank well)/(RLU of control well−RLU of blank well)×100.
(§2) Method for expressing the inhibitory activity of the compounds against the proliferation of tumor cells: Evaluation was made based on the cell survival rate at a compound concentration of 50 μM. 60≤survival rate (%)<90 is considered to have low inhibitory activity against the proliferation of tumor cells (+); 30<survival rate (%)≤60 is considered to have moderate inhibitory activity against the proliferation of tumor cells (++); and survival rate (%)≤30 is considered to have high inhibitory activity against the proliferation of tumor cells (+++).

RPMI-8226 = assay: Inhibition of tumor cell proliferation, CellTiter-Glo, RPMI-8226
Description: as §1, §2

MDA-MB-453 = assay: Inhibition of tumor cell proliferation, CellTiter-Glo, MDA-MB-453
Description: as §1, §2

A549 = assay: Inhibition of tumor cell proliferation, CellTiter-Glo, A549
Description: as §1, §2

K562 = assay: Inhibition of tumor cell proliferation, CellTiter-Glo, K562
Description: as §1, §2

SU-DHL6 = assay: Inhibition of tumor cell proliferation, CellTiter-Glo, SU-DHL6
Description: as §1, §2

SMILES | Inhibitory activity against proliferation (cell survival rate) BxPC-3 (BxPC-3) | Inhibitory activity against proliferation (cell survival rate) RPMI-8226 (RPMI-8226) | Inhibitory activity against proliferation (cell survival rate) MDA-MB-453 (MDA-MB-453) | Inhibitory activity against proliferation (cell survival rate) A549 (A549) | Inhibitory activity against proliferation (cell survival rate) K562 (K562) | Inhibitory activity against proliferation (cell survival rate) SU-DHL6 (SU-DHL6)
O=C1CCC(N2Cc3c(NC=C4C(=O)CC(c5ccc(O)cc5)CC4=O)cccc3C2=O)C(=O)N1 (stereo not drawn) [Compound 34] | + (60≤survival rate (%)<90) | ++ (30<survival rate (%)≤60) | +++ (survival rate (%)≤30) | + (60≤survival rate (%)<90) | ++ (30<survival rate (%)≤60) | +++ (survival rate (%)≤30)
O=C1CCC(N2Cc3c(NC=C4C(=O)CC(c5ccccc5Cc5ccccc5)CC4=O)cccc3C2=O)C(=O)N1 (stereo not drawn) [Compound 35] | ++ (30<survival rate (%)≤60) | +++ (survival rate (%)≤30) | ++ (30<survival rate (%)≤60) | +++ (survival rate (%)≤30) | +++ (survival rate (%)≤30) | +++ (survival rate (%)≤30)
O=C1CCC(N2Cc3c(NC=C4C(=O)CC(c5cccs5)CC4=O)cccc3C2=O)C(=O)N1 (stereo not drawn) [Compound 36] | + (60≤survival rate (%)<90) | + (60≤survival rate (%)<90) | ++ (30<survival rate (%)≤60) | + (60≤survival rate (%)<90) | + (60≤survival rate (%)<90) | +++ (survival rate (%)≤30)
O=C1CCC(N2Cc3c(NC=C4C(=O)CC(c5csc6ccccc56)CC4=O)cccc3C2=O)C(=O)N1 (stereo not drawn) [Compound 37] | + (60≤survival rate (%)<90) | + (60≤survival rate (%)<90) | +++ (survival rate (%)≤30) | + (60≤survival rate (%)<90) | + (60≤survival rate (%)<90) | +++ (survival rate (%)≤30)
COc1ccc(C2CC(=O)C(=CNc3cccc4c3CN(C3CCC(=O)NC3=O)C4=O)C(=O)C2)c(OC)c1 (stereo not drawn) [Compound 40] | ++ (30<survival rate (%)≤60) | + (60≤survival rate (%)<90) | + (60≤survival rate (%)<90) | +++ (survival rate (%)≤30) | +++ (survival rate (%)≤30) | + (60≤survival rate (%)<90)
Cc1cc(C(=O)Nc2cccc3c2CN(C2CCC(=O)NC2=O)C3=O)ccc1NC=C1C(=O)CC(c2ccccc2)CC1=O (stereo not drawn) [Compound 51] | + (60≤survival rate (%)<90) | +++ (survival rate (%)≤30) | + (60≤survival rate (%)<90) | + (60≤survival rate (%)<90) | + (60≤survival rate (%)<90) | + (60≤survival rate (%)<90)
O=C1CCC(N2Cc3c(NC(=O)c4ccccc4NC=C4C(=O)CC(c5ccccc5)CC4=O)cccc3C2=O)C(=O)N1 (stereo not drawn) [Compound 52] | + (60≤survival rate (%)<90) | +++ (survival rate (%)≤30) | ++ (30<survival rate (%)≤60) | ++ (30<survival rate (%)≤60) | +++ (survival rate (%)≤30) | + (60≤survival rate (%)<90)
O=C1CCC(N2Cc3c(NC(=O)c4cccc(NC=C5C(=O)CC(c6ccccc6)CC5=O)c4)cccc3C2=O)C(=O)N1 (stereo not drawn) [Compound 53] | + (60≤survival rate (%)<90) | +++ (survival rate (%)≤30) | ++ (30<survival rate (%)≤60) | +++ (survival rate (%)≤30) | +++ (survival rate (%)≤30) | +++ (survival rate (%)≤30)
O=C1CCC(N2Cc3c(NC(=O)CN4CCN(CCNC=C5C(=O)CC(c6ccccc6)CC5=O)CC4)cccc3C2=O)C(=O)N1 (stereo not drawn) [Compound 54] | + (60≤survival rate (%)<90) | ++ (30<survival rate (%)≤60) | ++ (30<survival rate (%)≤60) | +++ (survival rate (%)≤30) | +++ (survival rate (%)≤30) | +++ (survival rate (%)≤30)
O=C1CCC(N2C(=O)c3cccc(NC(=O)CN4CCN(CCNC=C5C(=O)CC(c6ccccc6)CC5=O)CC4)c3C2=O)C(=O)N1 (stereo not drawn) [Compound 55] | + (60≤survival rate (%)<90) | ++ (30<survival rate (%)≤60) | ++ (30<survival rate (%)≤60) | +++ (survival rate (%)≤30) | + (60≤survival rate (%)<90) | +++ (survival rate (%)≤30)
O=C1CCC(N2Cc3c(NC(=O)CCC(=O)OCCN4CCN(CCNC=C5C(=O)CC(c6ccccc6)CC5=O)CC4)cccc3C2=O)C(=O)N1 (stereo not drawn) [Compound 56] | + (60≤survival rate (%)<90) | + (60≤survival rate (%)<90) | +++ (survival rate (%)≤30) | +++ (survival rate (%)≤30) | + (60≤survival rate (%)<90) | +++ (survival rate (%)≤30)
O=C1CCC(N2C(=O)c3cccc(NC(=O)CCC(=O)OCCN4CCN(CCNC=C5C(=O)CC(c6ccccc6)CC5=O)CC4)c3C2=O)C(=O)N1 (stereo not drawn) [Compound 57] | + (60≤survival rate (%)<90) | + (60≤survival rate (%)<90) | + (60≤survival rate (%)<90) | + (60≤survival rate (%)<90) | + (60≤survival rate (%)<90) | +++ (survival rate (%)≤30)
O=C1CCC(N2Cc3c(NC(=O)C4CCN(CCNC=C5C(=O)CC(c6ccccc6)CC5=O)CC4)cccc3C2=O)C(=O)N1 (stereo not drawn) [Compound 61] | + (60≤survival rate (%)<90) | + (60≤survival rate (%)<90) | +++ (survival rate (%)≤30) | + (60≤survival rate (%)<90) | + (60≤survival rate (%)<90) | ++ (30<survival rate (%)≤60)
O=C1CCC(N2Cc3c(NC(=O)c4cnc(NC=C5C(=O)CC(c6ccccc6)CC5=O)s4)cccc3C2=O)C(=O)N1 (stereo not drawn) [Compound 62] | ++ (30<survival rate (%)≤60) | +++ (survival rate (%)≤30) | +++ (survival rate (%)≤30) | ++ (30<survival rate (%)≤60) | + (60≤survival rate (%)<90) | ++ (30<survival rate (%)≤60)
O=C1CCC(N2C(=O)c3cccc(NC(=O)c4cnc(NC=C5C(=O)CC(c6ccccc6)CC5=O)s4)c3C2=O)C(=O)N1 (stereo not drawn) [Compound 63] | + (60≤survival rate (%)<90) | ++ (30<survival rate (%)≤60) | + (60≤survival rate (%)<90) | + (60≤survival rate (%)<90) | +++ (survival rate (%)≤30) | ++ (30<survival rate (%)≤60)
O=C1CCC(N2Cc3c(NC(=O)[C@@H]4C[C@H](O)CN4CCNC=C4C(=O)CC(c5ccccc5)CC4=O)cccc3C2=O)C(=O)N1 (stereo partly drawn) [Compound 65] | + (60≤survival rate (%)<90) | +++ (survival rate (%)≤30) | +++ (survival rate (%)≤30) | +++ (survival rate (%)≤30) | +++ (survival rate (%)≤30) | +++ (survival rate (%)≤30)
